# Laboratory results reported in US20230321086A1, “METHODS AND MATERIALS FOR INHIBITING NICOTINAMIDE PHOSPHORIBOSYLTRANSFERASE ACTIVITY” (Universiy of Pittsburgh - Of the Commonwealth System of …, priority 2020, published 2023).
# pIC50: −log10 of the molar value.
# Target: NAMPT (Homo sapiens, UniProt P43490)
# Assay: Assay for in vitro NAMPT activity via NMN assessment
# Format: biochemical
# Conditions: read-out: A: NAMPT enzyme inhibitory activity, IC50
# Procedure: The following were added to a well: 20 μL 2× test compound in Basic Buffer (0.02% BSA, 2 mM DTT, 12 mM MgCl2, 50 mM Tris pH7.5); 10 μL 8 μg/mL NAMPT, and 200 μM PRPP working solution (or PRPP working solution to background wells). 10 μL 100 μM NAM working solution was added to start the reaction. The plate was sealed and incubated for 45 minutes at 37° C. After incubation, 10 μL 20% acetophenone in DMSO, 10 μL 2N KOH, and 20 μL 88% formic acid were added. The plate was sealed and incubated for 30 minutes at 37° C. After incubation, fluorescence at Ex/Em 387/441 was read.
# (§1) In each table header, A: NAMPT enzyme inhibitory activity, IC50 (μM); B: Cellular NAD inhibitory activity, IC50 (μM); and C: change in NAD levels in response to test compound, shown as % of NAD activity in the absence of test compound. […] A percentage of 100 percent would indicate no increase or decrease in NAD levels as compared to that measured for untreated control cells, while a percentage of 50 percent would indicate a decrease in NAD levels of 50 percent as compared to that measured for untreated control cells.
# NAMPT, sequence (P43490 whole entry, species assumed): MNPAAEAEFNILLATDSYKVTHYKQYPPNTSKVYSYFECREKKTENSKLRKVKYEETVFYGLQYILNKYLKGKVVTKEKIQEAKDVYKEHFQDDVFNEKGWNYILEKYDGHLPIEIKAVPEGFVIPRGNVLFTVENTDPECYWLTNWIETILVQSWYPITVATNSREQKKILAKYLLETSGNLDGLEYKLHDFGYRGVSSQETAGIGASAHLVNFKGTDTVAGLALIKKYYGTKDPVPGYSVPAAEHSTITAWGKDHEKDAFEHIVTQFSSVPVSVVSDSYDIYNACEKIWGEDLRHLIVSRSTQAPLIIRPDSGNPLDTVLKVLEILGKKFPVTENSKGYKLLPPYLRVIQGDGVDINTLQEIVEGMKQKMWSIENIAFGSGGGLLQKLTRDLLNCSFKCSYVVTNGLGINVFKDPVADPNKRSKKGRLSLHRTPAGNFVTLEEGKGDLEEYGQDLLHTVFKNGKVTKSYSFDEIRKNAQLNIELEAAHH
row,pIC50,Structure (SMILES)
1,≤ 4.60,O=C(NCCN1CCCC1)c1cnc2nc(-c3ccc(F)cc3)c(-c3ccc(F)cc3)nc2c1 [BC20202]
2,4.60 to 6.00,O=C(NCc1cccnc1)c1cnc2nc(-c3ccc(F)cc3)c(-c3ccc(F)cc3)nc2c1 [BC20203]
3,≤ 4.60,O=C(NCc1ccncc1)c1cnc2nc(-c3ccc(F)cc3)c(-c3ccc(F)cc3)nc2c1 [BC20204]
4,> 6.00,O=C(NCCc1ccncc1)c1cnc2nc(-c3ccc(F)cc3)c(-c3ccc(F)cc3)nc2c1 [BC20206]
5,≤ 4.60,O=C(NCc1ccccc1)Nc1cnc2nc(-c3ccc(F)cc3)c(-c3ccc(F)cc3)nc2c1 [BC20207]
6,≤ 4.60,CC(=O)Nc1cccc(-c2nc3cc(C(=O)N4CCN(C)CC4)ccc3nc2-c2ccc(F)cc2)c1 [BC20208]
7,≤ 4.60,COCC(=O)Nc1cccc(-c2nc3cc(C(=O)N4CCN(C)CC4)ccc3nc2-c2ccc(F)cc2)c1 [BC20209]
8,≤ 4.60,CN1CCN(C(=O)c2ccc3nc(-c4ccc(F)cc4)c(-c4cccc(NS(C)(=O)=O)c4)nc3c2)CC1 [BC20210]
9,≤ 4.60,C#CCNC(=O)c1ccc2nc(-c3ccc(F)cc3)c(-c3cccc(NC(=O)COC)c3)nc2c1 [BC20211]
10,≤ 4.60,C#CCNC(=O)c1ccc2nc(-c3ccc(F)cc3)c(-c3cccc(NS(C)(=O)=O)c3)nc2c1 [BC20212]
11,≤ 4.60,C#CCNC(=O)c1ccc2nc(-c3ccc(F)cc3)c(-c3cccc(NC(=O)CN(C)C)c3)nc2c1 [BC20214]
12,≤ 4.60,CN(C)Cc1cccc(-c2nc3cc(C(=O)N4CCN(C)CC4)ccc3nc2-c2ccc(F)cc2)c1 [BC20215]
13,4.60 to 6.00,CC(=O)N1CCCC(NC(=O)Nc2ccc3nc(-c4ccc(F)cc4)c(-c4ccc(F)cc4)nc3c2)C1 (stereo not drawn) [BC20217]
14,≤ 4.60,O=C1NCCCN1c1ccc2nc(-c3ccc(F)cc3)c(-c3ccc(F)cc3)nc2c1 [BC20218]
15,≤ 4.60,O=C1N(Cc2cccnc2)CCCN1c1ccc2nc(-c3ccc(F)cc3)c(-c3ccc(F)cc3)nc2c1 [BC20219]
16,≤ 4.60,C#CCNC(=O)c1ccc2nc(-c3ccc(F)cc3)c(-c3cccc(CO)c3)nc2c1 [BC20220]
17,≤ 4.60,COCC(=O)Nc1cccc(-c2nc3ccc(C(=O)N4CCN(C)CC4)cc3nc2-c2cccc(NC(=O)COC)c2)c1 [BC20221]

row,pIC50,Structure (SMILES)
1,≤ 4.60,C#CCNC(=O)c1ccc2nc(-c3ccc(F)cc3)c(-c3cccc(NC(C)=O)c3)nc2c1 [BC20222]
2,≤ 4.60,C#CCNC(=O)c1ccc2nc(-c3ccc(F)cc3)c(-c3cccc(CN4CCCC4)c3)nc2c1 [BC20223]
3,≤ 4.60,O=C(Nc1ccc2nc(-c3ccc(F)cc3)c(-c3ccc(F)cc3)nc2c1)NC1CCCNC1 (stereo not drawn) [BC20225]
4,4.60 to 6.00,O=C1N(Cc2ccncc2)CCCN1c1ccc2nc(-c3ccc(F)cc3)c(-c3ccc(F)cc3)nc2c1 [BC20226]
5,≤ 4.60,C#CCNC(=O)c1ccc2nc(-c3cccc(NC(C)=O)c3)c(-c3cccc(NC(C)=O)c3)nc2c1 [BC20227]
6,≤ 4.60,C#CCNC(=O)c1ccc2nc(-c3cccc(NC(=O)COC)c3)c(-c3cccc(NC(=O)COC)c3)nc2c1 [BC20228]
7,≤ 4.60,CN(C)CC(=O)Nc1cccc(-c2nc3cc(C(=O)N4CCN(C)CC4)ccc3nc2-c2ccc(F)cc2)c1 [BC20229]
8,≤ 4.60,CC(=O)NCc1cccc(-c2nc3cc(C(=O)N4CCN(C)CC4)ccc3nc2-c2ccc(F)cc2)c1 [BC20230]
9,≤ 4.60,CN1CCN(C(=O)c2ccc3nc(-c4ccc(F)cc4)c(-c4cccc(CNS(C)(=O)=O)c4)nc3c2)CC1 [BC20231]
10,≤ 4.60,CN1CCN(Cc2cccc(-c3nc4cc(C(=O)N5CCN(C)CC5)ccc4nc3-c3ccc(F)cc3)c2)CC1 [BC20232]
11,≤ 4.60,C#CCNC(=O)c1ccc2nc(-c3ccc(F)cc3)c(-c3cccc(CN(C)C)c3)nc2c1 [BC20233]
12,≤ 4.60,C#CCNC(=O)c1ccc2nc(-c3cccc(CN(C)C)c3)c(-c3ccc(F)cc3)nc2c1 [BC20234]
13,4.60 to 6.00,O=C(NCc1cccnc1)NCc1ccc2nc(-c3ccc(F)cc3)c(-c3ccc(F)cc3)nc2c1 [BC20236]
14,≤ 4.60,CN1CCCC(NC(=O)Nc2ccc3nc(-c4ccc(F)cc4)c(-c4ccc(F)cc4)nc3c2)C1 (stereo not drawn) [BC20237]
15,4.60 to 6.00,CS(=O)(=O)N1CCCC(NC(=O)Nc2ccc3nc(-c4ccc(F)cc4)c(-c4ccc(F)cc4)nc3c2)C1 (stereo not drawn) [BC20238]
16,≤ 4.60,CC(=O)N1CCCC(NC(=O)Nc2cnc3nc(-c4ccc(F)cc4)c(-c4ccc(F)cc4)nc3c2)C1 (stereo not drawn) [BC20239]
17,≤ 4.60,CN1CCN(C(=O)c2ccc3nc(-c4ccc(F)cc4)c(-c4cccc(CO)c4)nc3c2)CC1 [BC20240]

# Test system: A431 cells
# Assay: Assay for total NADH and NAD+ measurements in cells
# Format: cell-based
# Set-up: C: change in NAD levels in response to test compound, shown as % of NAD activity in the absence of test compound: concentration or dose not given beside the values
# Conditions: percent of NAD level of untreated control cells (100 = no change)
# Procedure: 2,000 cells/well and, at the same time, test compounds dissolved in media at the desired concentration were added to each well. The treated cells were incubated overnight in C02 incubator. The cells were washed 6 times with PBS with 1 mM CaCl2) and 1 mM MgCl2. In the last wash, 10 μL of PBS with 1 mM CaCl2) and 1 mM MgCl2 per well were left in each well. Immediately thereafter, 10 μL 0.4% dodecyltrimethylammonium bromide (DTAB) in phosphate buffer pH 8.0 as added, and the plates were shaked at 1000 rpm for 5 minutes. 60 μL reaction mix was added, and fluorescence at Ex/Em 530/585 was immediately monitored. A linear increase should be achieved with 8 cycles every 92 seconds, 10 number of flashes/well/cycle. The reaction mix was prepared per the following table, respecting the amount and order in which each component was added:
# All assays were performed in A431 cells. Referring to the tables below, activity: “+” ≥25 μM, “++” ≥1 μM and <25 μM, and “+++”<1 μM.
# as §1
row,Structure (SMILES),"C: change in NAD levels in response to test compound, shown as % of NAD activity in the absence of test compound [%]"
1,O=C(NCCO)Nc1ccc2nc(-c3ccc(F)cc3)c(-c3ccc(F)cc3)nc2c1 [BC19566],77
2,O=C(NCCN1CCOCC1)Nc1ccc2nc(-c3ccc(F)cc3)c(-c3ccc(F)cc3)nc2c1 [BC19567],46
3,O=C(Nc1ccc2nc(-c3ccc(F)cc3)c(-c3ccc(F)cc3)nc2c1)NC1CC1 [BC19568],81
4,O=C(NCC1CC1)Nc1ccc2nc(-c3ccc(F)cc3)c(-c3ccc(F)cc3)nc2c1 [BC19569],57
5,O=C(NCc1ccccn1)Nc1ccc2nc(-c3ccc(F)cc3)c(-c3ccc(F)cc3)nc2c1 [BC19570],29
6,O=C(NCc1cccnc1)Nc1ccc2nc(-c3ccc(F)cc3)c(-c3ccc(F)cc3)nc2c1 [BC19571],10
7,O=C(NCc1ccncc1)Nc1ccc2nc(-c3ccc(F)cc3)c(-c3ccc(F)cc3)nc2c1 [BC19572],26
8,CN(C)CCCNC(=O)Nc1ccc2nc(-c3ccc(F)cc3)c(-c3ccc(F)cc3)nc2c1 [BC19573],11
9,COCCCNC(=O)Nc1ccc2nc(-c3ccc(F)cc3)c(-c3ccc(F)cc3)nc2c1 [BC19574],61
10,O=C(NCCCO)Nc1ccc2nc(-c3ccc(F)cc3)c(-c3ccc(F)cc3)nc2c1 [BC19575],78
11,O=C(NCCCN1CCOCC1)Nc1ccc2nc(-c3ccc(F)cc3)c(-c3ccc(F)cc3)nc2c1 [BC19576],61
12,CN1CCN(Cc2ccc3nc(-c4ccc(F)cc4)c(-c4ccc(F)cc4)nc3c2)CC1 [BC19577],41
13,CN1CCN(C(=O)c2ccc3nc(-c4ccc(F)cc4)c(Nc4ccc(F)cc4)nc3c2)CC1 [BC19578],89
14,CN1CCN(CCNC(=O)Nc2ccc3nc(-c4ccc(F)cc4)c(-c4ccc(F)cc4)nc3c2)CC1 [BC19616],31
15,O=C(NCCCN1CCCC1=O)Nc1ccc2nc(-c3ccc(F)cc3)c(-c3ccc(F)cc3)nc2c1 [BC19617],58
16,CNc1ncc(-c2ccc3nc(-c4ccc(F)cc4)c(-c4ccc(F)cc4)nc3c2)o1 [BC19619],55
17,CN1CCN(C(=O)C2CCc3nc(-c4ccc(F)cc4)c(-c4ccc(F)cc4)nc3C2)CC1 (stereo not drawn) [BC19663],18
18,OCCCn1c(-c2ccc3nc(-c4ccc(F)cc4)c(-c4ccc(F)cc4)nc3c2)n[nH]c1=S [BC19664],70
19,OCCCn1cnnc1-c1ccc2nc(-c3ccc(F)cc3)c(-c3ccc(F)cc3)nc2c1 [BC19665],58
20,CN1CCN(C(=O)c2cc3nc(-c4ccc(F)cc4)c(-c4ccc(F)cc4)nc3cn2)CC1 [BC19666],70
21,Cn1oc(-c2ccc3nc(-c4ccc(F)cc4)c(-c4ccc(F)cc4)nc3c2)cc1=O [BC19667],38
22,C/N=C(\c1ccc2nc(-c3ccc(F)cc3)c(-c3ccc(F)cc3)nc2c1)N1CCN(C)CC1 [BC19668],31
23,CN1CCN(C(=O)C2Cc3nc(-c4ccc(F)cc4)c(-c4ccc(F)cc4)nc3C2)CC1 [BC19723],54
